# Results from patent US12708673B2, “Methods and compositions related to peptides and proteins with c-terminal elements” (Sanford Burnham Prebys Medical Discovery Institute, priority 2008, dated 2026).
# Columns and labels:
# [1] = system: PPC-1 cells; experiment: T7 phage internalization into PPC-1 (PPC1) cells at 37° C. (acid wash and titration, or anti-T7 staining and confocal imaging); format: cell-based, human
# Experimental: FIG. 2A: Binding of T7 phage to prostate cancer cells depends on the display of a C-terminal arginine on the phage particles. PPC1 cells were incubated with T7 bacteriophage displaying derivatives of the G7 (upper graph) or RPARPAR peptide (SEQ ID NO: 2) (lower graph) at 4° C., and the bound phage was quantified by plaque assay. Binding is expressed in fold over of the non-binding G7 control phage. FIG. 2B: Phage displaying C-terminal arginine is internalized into cultured PPC1 cells (arrow, nuclear internalization; arrowhead, cytoplasmic internalization). A panel of T7 phage clones were incubated at 37° C. with PPC1 cells grown on collagen-coated coverslips, stained with anti T7 antibody and imaged by confocal microscopy.
# Phage display. For in vivo phage display, mice were injected intravenously with 10^10 plaque-forming units (pfu) of T7 phage followed by perfusion of the circulatory system and determination of the bound phage in target organs by titration. For cell binding studies on cultured cells (in vitro display) and organ-derived cell suspensions (ex vivo display), the cells were incubated with 10^9 pfu of phage at 4° C., washed, lysed, and quantified by titration. Incubation at 37° C. followed by low pH wash (glycine-HCl, pH 2.5) was used to assess the amount of internalized phage.
# For biopanning and phage binding studies (Hoffman, J. A. et al., 2004), cultured cells were grown to confluence and harvested with trypsin and mouse organs were dissociated using Medimachine (BD Biosciences, San Jose, CA). To measure phage binding, 10^6 cells in binding buffer (DMEM containing 1% BSA) were incubated with 10^9 pfu/ml of T7 phage for 1 hour at 4° C. The cells were washed 4 times with the binding buffer, lysed in LB bacterial growth medium containing 1% NP-40, and titrated. Phage internalization assays used the same procedure, except that the cells were incubated with the phage at 37° C., and that an acidic buffer (500 mM sodium chloride, 0.1 M glycine, 1% BSA, pH 2.5) was used instead of binding buffer in the second wash.
# Centrifugation on a silicone oil cushion (1.03 g/ml) was used to separate unbound phage from cells during time course experiments. Inhibitors of phage binding and internalization (heparin, chondroitin, glycocalyx removal enzymes, endocytosis inhibitors, free peptides, quantum dots and UV-inactivated phage) were added to the cells 20 minutes prior to incubation with phage. Endocytosis inhibitors used in this study were the following: nystatin (50 μg/ml), genistein (100 μg/ml), chlorpromazine (5 μg/ml), 5-(N-ethyl-N-isopropyl) amiloride (100 μM), wortmannin (10 μM).
# Immunofluorescence staining. Cultured cells (2×10^5 cells) were grown in 6-well tissue culture plates on collagen-I coated coverslips (BD Biosciences, San Jose, CA) overnight at 37° C. in 5% CO2, and incubated with 10^8 pfu of T7 phage. The cells were fixed in 4% paraformaldehyde or cold (−20° C.) methanol, and stained with antibodies. Nuclei were stained with DAPI or […]. A polyclonal rabbit anti-T7 antibody was generated in-house as described previously (Laakkonen, P. et al. 2002b), except that an additional phage purification step using […] centrifugation was included. Other primary antibodies used were rat anti-mouse CD31 monoclonal antibody (BD Biosciences), rabbit anti-NRP-1, mouse anti-human Lamp-1, mouse anti-human caveolin (Millipore, Temecula, CA), mouse anti-NRP-1 (Miltenyi Biotec Inc., Auburn, CA), mouse anti-human EEA-1 (BD Biosciences, San Jose, CA). The secondary antibodies, Alexa594 goat antibodies to mouse, rat, and rabbit immunoglobulins and Alexa488 donkey anti-rabbit antibody were from Invitrogen (Carlsbad, CA). Cells and tissue sections were examined by confocal microscopy (Fluoview 500, Olympus America Inc., Center Valley, PA).
# [2] = molecular target: T1, wild-type NRP-1 (Homo sapiens, UniProt O14786); experiment: Phage binding and internalization in M21 melanoma cells transiently transfected with wild-type NRP-1; format: cell-based
# T1 construct: expressed in transfected cells; host or cells: M21 melanoma cells, transient transfection with lipofectamine; pcDNA3.1(+) construct, gift of Dr. Michael Klagsbrun
# T1 sequence (O14786 22-923): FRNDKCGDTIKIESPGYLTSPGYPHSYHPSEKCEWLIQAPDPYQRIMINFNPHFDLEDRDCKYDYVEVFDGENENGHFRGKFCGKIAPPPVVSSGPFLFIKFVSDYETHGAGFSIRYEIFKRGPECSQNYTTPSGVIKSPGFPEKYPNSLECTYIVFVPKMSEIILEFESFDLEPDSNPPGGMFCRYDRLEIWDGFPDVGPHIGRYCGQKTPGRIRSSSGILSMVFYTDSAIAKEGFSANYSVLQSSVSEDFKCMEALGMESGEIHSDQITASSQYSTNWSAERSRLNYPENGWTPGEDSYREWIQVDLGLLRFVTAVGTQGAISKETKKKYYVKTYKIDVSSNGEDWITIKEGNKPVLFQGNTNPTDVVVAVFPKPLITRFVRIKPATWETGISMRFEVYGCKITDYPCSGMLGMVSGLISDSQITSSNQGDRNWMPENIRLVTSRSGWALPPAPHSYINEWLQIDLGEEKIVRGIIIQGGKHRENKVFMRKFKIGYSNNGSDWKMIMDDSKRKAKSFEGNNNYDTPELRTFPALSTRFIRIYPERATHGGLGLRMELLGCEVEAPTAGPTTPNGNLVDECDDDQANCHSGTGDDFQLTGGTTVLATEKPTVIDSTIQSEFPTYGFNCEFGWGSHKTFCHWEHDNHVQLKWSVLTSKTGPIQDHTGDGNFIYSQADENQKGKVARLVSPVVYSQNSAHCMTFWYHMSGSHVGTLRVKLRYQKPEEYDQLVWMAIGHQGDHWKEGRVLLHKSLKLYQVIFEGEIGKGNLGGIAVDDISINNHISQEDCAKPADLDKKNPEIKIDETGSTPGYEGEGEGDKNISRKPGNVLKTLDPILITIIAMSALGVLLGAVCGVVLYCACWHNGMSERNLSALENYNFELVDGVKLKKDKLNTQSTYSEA
# Experimental: FIGS. 18A-18C show the identification and validation of NRP-1 as the CendR receptor. FIG. 18A: Affinity chromatography of proteins interacting with RPARPAR (SEQ ID NO: 2) peptide. PPC-1 tumor tissue was extracted with a 200 mM glucopyranoside buffer, and the extract was incubated with RPARPAR-coated (SEQ ID NO:2) beads, followed by extensive washes, and elution with 2 mM free RPARPAR (SEQ ID NO:2) peptide. Note appearance of a 130 kDa band, identified by mass spectroscopy as NRP-1, starting in the fraction 3 of the eluate. Upper panel—a silver stained gel, lower panel—an immunoblot with anti-NRP-1 antibody. FIG. 18B: Binding of RPARPAR (SEQ ID NO:2) phage to M21 melanoma cells transiently transfected with wild-type NRP-1 (NRP-1), triple mutant NS346A-E348A-T349A NRP-1 (Mutant NRP-1), or parental pcDNA3.1plasmid (Vector), and to non-transfected M21 cells. FIG. 18C: (c, d), Confocal immunofluorescence images of NRP-1 and RPARPAR (SEQ ID NO:2) T7 phage in PPC-1 cells incubated with phage at 37° C. for 40 minutes (c) and 3 hours (d). The phage and NRP-1 co-localize extensively, but there appears to be a progressive decrease in the overlap (arrowheads in c and d) and appearance of structures positive for the phage only (arrows, d). (e) Immunostaining and confocal imaging of RPARPAR (SEQ ID NO:2) phage and NRP-1 in M21 cells transiently transfected with NRP-1. […]
# [3] = system: PPC-1 cells; experiment: Binding and internalization of peptide-coated quantum dots by PPC-1 cells (confocal/fluorescence microscopy); format: cell-based, human; settings: excess of RPARPAR-displaying phage
substance,measurement,setting,value
RPARPAR [RPARPAR phage],Effect of pre-incubation with UV-inactivated phage on iRGD phage internalization,[1],decreased
same,Phage internalization into PPC-1 cells (in words),[1]; 37° C.,robust binding and internalization
same,Time to perinuclear accumulation,"[1]; phage, 37° C.",1 h
same,Time to plasma membrane association,"[1]; phage, 37° C.",15 min
same,Phage binding and internalization by M21 cells with forced expression of NRP-1,[2],capable of binding and internalizing
same,Effect of pre-incubation of cells with excess phage on RPARPAR-Q-dot internalization,[3],inhibited
